18 compounds from patent US9718788B2, “Heteroaryl compounds useful as inhibitors of E1 activating enzymes” (MILLENNIUM PHARMACEUTICALS, INC., priority 2006, dated 2017) can be followed below.

The structures appear in SMILES notation.

In the first assay the target is T1, recombinant human NAE enzyme (Homo sapiens, UniProt Q8TBC4).
T1 construct: His (N); made in house; host or cells: Sf9 insect cells (baculovirus, Bac-to-Bac)
T1 sequence (Q8TBC4 1-463): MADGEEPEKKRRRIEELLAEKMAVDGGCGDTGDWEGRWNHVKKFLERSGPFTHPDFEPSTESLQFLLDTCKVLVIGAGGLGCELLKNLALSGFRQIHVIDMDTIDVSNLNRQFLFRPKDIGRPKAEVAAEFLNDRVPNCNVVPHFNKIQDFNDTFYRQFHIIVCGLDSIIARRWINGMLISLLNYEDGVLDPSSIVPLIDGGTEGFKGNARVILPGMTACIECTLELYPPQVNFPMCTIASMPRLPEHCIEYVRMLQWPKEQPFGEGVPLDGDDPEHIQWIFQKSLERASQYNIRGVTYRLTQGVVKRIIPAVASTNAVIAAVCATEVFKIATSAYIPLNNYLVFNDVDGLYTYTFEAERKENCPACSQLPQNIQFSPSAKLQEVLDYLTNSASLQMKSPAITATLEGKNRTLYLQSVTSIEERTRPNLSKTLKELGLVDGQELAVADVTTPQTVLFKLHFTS
T1 sequence (Q13564 1-534 partner): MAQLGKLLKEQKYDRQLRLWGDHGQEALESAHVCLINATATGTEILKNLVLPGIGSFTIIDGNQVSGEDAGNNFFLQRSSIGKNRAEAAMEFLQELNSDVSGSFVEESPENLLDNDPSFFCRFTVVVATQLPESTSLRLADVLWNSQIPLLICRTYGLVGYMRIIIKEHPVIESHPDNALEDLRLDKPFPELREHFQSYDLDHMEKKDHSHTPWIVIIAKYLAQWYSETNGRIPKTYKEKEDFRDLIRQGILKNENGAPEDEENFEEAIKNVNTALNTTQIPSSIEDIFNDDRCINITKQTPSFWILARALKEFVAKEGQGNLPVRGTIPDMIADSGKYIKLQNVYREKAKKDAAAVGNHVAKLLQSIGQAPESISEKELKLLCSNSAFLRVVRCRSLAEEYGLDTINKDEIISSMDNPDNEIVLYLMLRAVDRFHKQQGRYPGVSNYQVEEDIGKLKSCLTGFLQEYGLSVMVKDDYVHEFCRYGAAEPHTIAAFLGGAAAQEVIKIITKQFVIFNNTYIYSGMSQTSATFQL
The assay is described as follows: Nedd8-Activating Enzyme (NAE) HTRF Assay. It is filed as biochemical. To be noted: 20 μM ATP, bound given in nM. In outline: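 Recombinant human NAE (NAEα/His-NAEβ from Sf9 cells) at 0.20 nM with 20 μM ATP, 0.01 μM Ubc12-GST and 0.075 μM Nedd8-Flag in HEPES pH 7.5, 105 min at 24° C. EDTA stop; Eu-anti-FLAG/APC-anti-GST HTRF read after 1 h.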
In general terms: Time-resolved FRET reads energy transfer from a long-lived donor to a nearby acceptor.
Consider `Cc1nc(N[C@H]2CCc3ccccc32)nc(N[C@@H]2C[C@H](COS(N)(=O)=O)[C@@H](O)[C@H]2O)n1` [Compound I-45, [(1R,2R,3S,4R)-4-({4-[(1S)-2,3-dihydro-1H-inden-1-ylamino]-6-methyl-1,3,5-triazin-2-yl}amino)-2,3-dihydroxycyclopentyl]methyl sulfamate], for which the half-maximal inhibitory concentration (IC50) was at most 500 nM.
Still for that read-out and setting: as for `NS(=O)(=O)OC[C@@H]1C[C@@H](Nc2ncnc3[nH]c(-c4ccccc4Oc4ccccc4)nc23)C[C@@H]1O` [Compound I-37, ((1S,2S,4R)-2-hydroxy-4-{[8-(2-phenoxyphenyl)-9H-purin-6-yl]amino}-cyclopentyl)methyl sulfamate], the figure is at most 500 nM; as for `NS(=O)(=O)OC[C@@H]1C[C@@H](Oc2ncnc3nc(-c4cncc5ccccc45)[nH]c23)C[C@@H]1O` [Compound I-112, {(1S,2S,4R)-2-hydroxy-4-[(8-isoquinolin-4-yl-7H-purin-6-yl)oxy]cyclopentyl}methyl sulfamate], at most 500 nM; as for `CO[C@H]1Cc2ccccc2[C@H]1Nc1cc(N[C@@H]2C[C@@H](COS(N)(=O)=O)[C@@H](O)C2)ncn1` [Compound I-47, {(1S,2S,4R)-2-hydroxy-4-[(6-{[(1R,2S)-2-methoxy-2,3-dihydro-1H-inden-1-yl]-amino}pyrimidin-4-yl)amino]cyclopentyl}methyl sulfamate], at most 500 nM.
Take `NS(=O)(=O)OC[C@@H]1C[C@@H](Nc2ncnc3[nH]c(-c4ccccc4)nc23)C[C@@H]1O` [Compound I-69, {(1S,2S,4R)-2-hydroxy-4-[(8-phenyl-9H-purin-6-yl)amino]cyclopentyl}methyl sulfamate]: the IC50 was at most 500 nM.
The same measure, in the same setting: as for `NS(=O)(=O)OC[C@@H]1C[C@@H](Oc2cc(Cc3ccccc3)ncn2)C[C@@H]1O` [Compound I-132, {(1S,2S,4R)-4-[(6-benzylpyrimidin-4-yl)oxy]-2-hydroxycyclopentyl}methyl sulfamate], the figure is over 500 nM.
The same measure, in the same setting: the result for `NS(=O)(=O)OC[C@@H]1C[C@@H](N2CCc3c(N[C@H]4CCc5ccccc54)ncnc32)C[C@@H]1O` [Compound I-146, ((1S,2S,4R)-4-{4-[(1S)-2,3-dihydro-1H-inden-1-ylamino]-5,6-dihydro-7H-pyrrolo[2,3-d]pyrimidin-7-yl}-2-hydroxycyclopentyl)methyl sulfamate] reads at most 500 nM; that for `COc1cccc(OC)c1-c1nc2c(N[C@@H]3C[C@@H](COS(N)(=O)=O)[C@@H](O)C3)ncnc2[nH]1` [Compound I-93, ((1S,2S,4R)-4-{[8-(2,6-dimethoxyphenyl)-9H-purin-6-yl]amino}-2-hydroxycyclopentyl)methyl sulfamate], at most 500 nM; that for `CO[C@@H]1CCc2ccccc2[C@@H]1Nc1cc(O[C@@H]2C[C@@H](COS(N)(=O)=O)[C@@H](O)C2)ncn1` [Compound I-143, {(1S,2S,4R)-2-hydroxy-4-[(6-{[(1S,2R)-2-methoxy-1,2,3,4-tetrahydronaphthalen-1-yl]amino}pyrimidin-4-yl)oxy]cyclopentyl}methyl sulfamate], at most 500 nM.
The same measure, in the same setting: as for `NS(=O)(=O)OC[C@H]1C[C@@H](Nc2cc(N[C@H]3CCc4cc(Cl)ccc43)ncn2)[C@H](O)[C@@H]1O` [Compound I-19, {(1R,2R,3S,4R)-4-[(6-{[(1S)-5-chloro-2,3-dihydro-1H-inden-1-yl]amino}-pyrimidin-4-yl)-amino]-2,3-dihydroxycyclopentyl}methyl sulfamate], the figure is at most 500 nM.
For `NS(=O)(=O)OC[C@@H]1C[C@@H](Oc2ncnc3nc(-c4c[nH]c5ccccc45)[nH]c23)C[C@@H]1O` [Compound I-140, ((1S,2S,4R)-2-hydroxy-4-{[8-(1H-indol-3-yl)-7H-purin-6-yl]oxy}cyclopentyl)methyl sulfamate], the IC50 is at most 500 nM.
Take `CO[C@H]1CC(C)(C)c2ccccc2[C@H]1Nc1cc(O[C@@H]2C[C@@H](COS(N)(=O)=O)[C@@H](O)C2)ncn1` [Compound I-150, {(1S,2S,4R)-2-hydroxy-4-[(6-{[(1R,2S)-2-methoxy-4,4-dimethyl-1,2,3,4-tetrahydronaphthalen-1-yl]amino}pyrimidin-4-yl)oxy]cyclopentyl}methyl sulfamate]: the IC50 was at most 500 nM.
Still for that read-out and setting: as for `Cn1c(-c2ccccc2)nc2c(N[C@@H]3C[C@@H](COS(N)(=O)=O)[C@@H](O)C3)ncnc21` [Compound I-130, {(1S,2S,4R)-2-hydroxy-4-[(9-methyl-8-phenyl-9H-purin-6-yl)amino]cyclopentyl}methyl sulfamate], the figure is at most 500 nM; as for `NS(=O)(=O)OC[C@@H]1C[C@@H](Nc2cc(CCc3ccccc3)ncn2)C[C@@H]1O` [Compound I-81, ((1S,2S,4R)-2-hydroxy-4-{[6-(2-phenylethyl)pyrimidin-4-yl]amino}cyclopentyl)methyl sulfamate], over 500 nM.

The same assay, now with this note: 20 μM ATP, bound given in μM.
For the compound `NS(=O)(=O)OC[C@@H]1C[C@@H](O)[C@H](Nc2cc(N[C@H]3CCc4ccccc43)ncn2)C1` [Compound I-76, [(1S,3R,4R)-3-({6-[(1S)-2,3-dihydro-1H-inden-1-ylamino]pyrimidin-4-yl}amino)-4-hydroxycyclopentyl]methyl sulfamate], the IC50 was over 10000 nM.
Same read-out and setting: as for `NS(=O)(=O)OC[C@@H]1C[C@@H](Oc2cc(OCc3ccc(Cl)cc3)ncn2)C[C@@H]1O` [Compound I-89, [(1S,2S,4R)-4-({6-[(4-chlorobenzyl)oxy]pyrimidin-4-yl}oxy)-2-hydroxycyclopentyl]methyl sulfamate], the figure is over 10000 nM.
The same measure, in the same setting: the result for `NS(=O)(=O)OC[C@@H]1C[C@@H](Oc2cc(Cc3ccccc3)ncn2)C[C@@H]1O` [Compound I-132, {(1S,2S,4R)-4-[(6-benzylpyrimidin-4-yl)oxy]-2-hydroxycyclopentyl}methyl sulfamate] reads under 10000 nM.
Still for that read-out and setting: the result for `NS(=O)(=O)OC[C@H]1C[C@@H](NC(=O)c2ccccn2)[C@H](O)[C@@H]1O` [Compound I-23, {(1R,2R,3S,4R)-2,3-dihydroxy-4-[(pyridin-2-ylcarbonyl)amino]cyclopentyl}-methyl sulfamate] reads over 10000 nM.
Take `CN(Cc1ccccc1)c1nccc(N[C@@H]2C[C@H](COS(N)(=O)=O)[C@@H](O)[C@H]2O)n1` [Compound I-20, [(1R,2R,3S,4R)-4-({2-[benzyl(methyl)amino]pyrimidin-4-yl}amino)-2,3-dihydroxycyclopentyl]methyl sulfamate]: the IC50 is over 10000 nM.
For the compound `NS(=O)(=O)OC[C@@H]1C[C@@H](Nc2cc(CCc3ccccc3)ncn2)C[C@@H]1O` [Compound I-81, ((1S,2S,4R)-2-hydroxy-4-{[6-(2-phenylethyl)pyrimidin-4-yl]amino}cyclopentyl)methyl sulfamate], the IC50 is under 10000 nM.

What is called IC50 is the concentration that inhibits the measured activity by half.
